This is an account of results in patent US8916516B2, “Treatment of fungal and/or protist infections” (AI2 Limited, priority 2005, dated 2014).

Type in all cases: cell-based
One assay concerns fungi. The note with it: overall statement on the fungi tested. On the procedure:
(§1) Four compounds were supplied as an aqueous solution, 400 μM. Serial dilutions of each test peptide were prepared in addition to a control, which was a conventional antifungal drug, Amphoteracin B. Amphteracin B is obtained from Invitrogen or Melford laboratories.
(§2) Initial testing of the peptides was carried out against the following organisms: • 1) Aspergillus fumigatus AF293 (culture collection strain NCPF7367) • 2) Candida albicans 6862 (clinical isolate) • 3) Fusarium spp 5889 (clinical isolate) • 4) Fusarium spp 6507 (clinical isolate) • 5) Aspergillus terreus (clinical isolate) • 6) Aspergillus niger (clinical isolate) • 7) Staphylococcus aureus (Oxford strain, which is a standard reference strain used in MIC testing)
The bacterium S. aureus was tested with each of the peptides as a control. […] RPMI is standard Roswell Park Memorial Institute medium (Morton, H. C., (1970) A survey of Commercially Available Tissue Culture Media. In Vitro 6: 89-108).
(§3) Candida and S. aureus plates were read after 24 hrs incubation and the Aspergillus and Fusarium strains read after 48 hrs. The MIC was taken as the lowest drug or compound concentration that caused >80% reduction in growth compared with a drug free control.
(§4) The methods used to determine, the IC50 values for each peptide were as described in the Example 1.

In the next assay the test system is Fusarium solani 1 (FS1). Kind of assay: Antifungal MIC (Example 4). The note with it: Fusarium solani 1; peptides; Tables 4 and 5. On the procedure:
(§5) The inventor expanded the work conducted in Example 1 by testing an expanded library of peptides derived from either apolipoprotein B or apolipoprotein E in order to further evaluate polypeptides in accordance with the invention. These experiments were conducted using the following fungal species:
(§6) FS1-FS4 were obtained from Bristol PHLS (British Public Health Laboratory Service UK). Aspergillus fumigatus 293 is publicly available as culture collection strain NCPF7367 (National Collection of Pathogenic Fungi Public Health Laboratory, Mycological Reference Laboratory Myrtle Road, Kingsdown, Bristol BS2 8EL) The Candida albicans was a clinical isolate obtained by standard means.
as §4

For assay [1], the system named is Candida albicans (CA), clinical isolate. As to the kind of experiment: Antifungal MIC (Example 4). The settings on record: peptides, Tables 4 and 5. On the procedure: as §5, §6, §4
The next assay concerns Fusarium solani 3 (FS3). As to the kind of experiment: Antifungal MIC (Example 4). The note with it: Fusarium solani 3; peptides; Tables 4 and 5. On the procedure: as §5, §6, §4
A further assay deals with Fusarium solani 4 (FS4). Kind of assay: Antifungal MIC (Example 4). The note with it: Fusarium solani 4; peptides; Tables 4 and 5. On the procedure: as §5, §6, §4
In a further assay the test system is Fusarium solani 2 (FS2). As to the kind of experiment: Antifungal MIC (Example 4). The settings on record: Fusarium solani 2; peptides; Tables 4 and 5. On the procedure:
as §5, §6, §4

Assay [2] concerns Aspergillus fumigatus AF293 (NCPF7367). As to the kind of experiment: microbe, parasite or virus in culture. The settings on record: Aspergillus fumigatus 293; peptides; Tables 4 and 5. On the procedure: as §1, §2
The bacterium S. aureus was tested with each of the peptides as a control. A suspension of each organism in an appropriate growth medium was added to the, dilutions of the peptides in order to give concentration ranges of 40 μM to 0.04 μM for each of the peptides, and 64-0.025 μg/ml for amphotericin B. Fungal strains were tested in RPMI media. RPMI is standard Roswell Park Memorial Institute medium (Morton, H. C., (1970) A survey of Commercially Available Tissue Culture Media. In Vitro 6: 89-108).
The final inoculum for S. aureus was 5×10^4 cfu/ml. The final inoculum for C. albicans was 2×10^3 cfu/ml. The final inoculum for Aspergillus fumigatus and for Fusarium spp was 2×10^4 cfu/ml.
as §3
Aspergillus fumigatus 293 (AF); and
FS1-FS4 were obtained from Bristol PHLS (British Public Health Laboratory Service UK). Aspergillus fumigatus 293 is publicly available as culture collection strain NCPF7367 (National Collection of Pathogenic Fungi Public Health Laboratory, Mycological Reference Laboratory Myrtle Road, Kingsdown, Bristol BS2 8EL) The Candida albicans was a clinical isolate obtained by standard means. […]

Assay [3] has as its system Acanthamoeba polyphaga (trophozoites), Ros strain. As to the kind of experiment: Microtitre plate assay against Acanthamoeba trophozoites (Example 2). The note with it: lowest concentration killing the trophozoite challenge. From the text: The test compounds were screened against the trophozoites of clinical isolates of Acanthamoeba spp. using a microtitre plate assay procedure. The organisms were Acanthamoeba polyphaga. (see for details on the strain and methodology used: Hughes, R. & Kilvington, S. (2001). A comparison of hydrogen peroxide contact lens disinfection systems and solutions against Acanthamoeba polyphaga. Antimicrob. Agents Chemother. 45: 2038-2043.) Acanthamoeba polyphaga Ros strain was used throughout the study. The strain was originally isolated from an unpublished case of acanthamoeba keratitis in the United Kingdom in 1994.
Use of the microliter plate assay enabled the determination of the minimum amoebacidal trophozoite concentration (MATC), which is the minimum amoebacidal trophozoite concentration (μg/ml)=lowest concentration killing the trophozoite challenge […] and also the minimum inhibitory trophozoite concentration (MITC), which is the minimum inhibitory trophozoite concentration (μg/ml)=lowest concentration stopping the trophozoites from dividing or killing about 50% of population. The values may then be used to select drug concentrations for use in time-kill experiments to study the kinetics of Acanthamoeba killing.

No end group written: not given here. Some results are limits rather than exact numbers.

For “CRKCRKRCCCRKCRKRCC (Artficial polypeptide designated MU 12) [MU_12]”, the “antifungal activity (in words)” value in the assay with fungi is listed as “particularly effective antifungal peptides”. Also, the “MIC values (>80% reduction) FS1” value in the assay with Fusarium solani 1 (FS1) was found to be 2.5 µM. Moreover, the “MIC values (>80% reduction) CA” value in assay [1] is >40 µM. Further, in the assay with Fusarium solani 3 (FS3), the “MIC values (>80% reduction) FS3” value came to 10 µM. In addition, the “MIC values (>80% reduction) FS4” value with Fusarium solani 4 (FS4) is 5 µM. Further, the “MIC values (>80% reduction) FS2” value in the assay with Fusarium solani 2 (FS2) came out at 5 µM. In addition, the “MIC values (>80% reduction) AF” value in assay [2] was determined as 40 µM.

For “FRKFRKRFFFRKFRKRFF (Artficial polypeptide designated MU7) [MU_7]”, the “antifungal activity (in words)” value in the assay on fungi was “particularly effective antifungal peptides”. Further, the “MIC values (>80% reduction) FS1” value against Fusarium solani 1 (FS1) is 5 µM. Besides, the “MIC values (>80% reduction) CA” value in assay [1] is >40 µM. Moreover, the “MIC values (>80% reduction) FS3” value against Fusarium solani 3 (FS3) was determined as 5 µM. Also, in the assay on Fusarium solani 4 (FS4), the “MIC values (>80% reduction) FS4” value stood at 20 µM. Moreover, in the assay with Fusarium solani 2 (FS2), the “MIC values (>80% reduction) FS2” value was 2.5 µM. Moreover, in assay [3], the “MATC = minimum amoebacidal trophozoite concentration” value amounted to 93.1 µM. Moreover, the “MIC values (>80% reduction) AF” value in assay [2] was >40 µM.

Turning to “KRKKRKRKKKRKKRKRKK (Artificial polypeptide designated MU 18) [MU_18, 85]”, the “antifungal activity (in words)” value in the assay on fungi is reported as “particularly effective antifungal peptides”. Besides, in the assay on Fusarium solani 1 (FS1), the “MIC values (>80% reduction) FS1” value was 2.5 µM. Further, the “MIC values (>80% reduction) CA” value in assay [1] is >40 µM. For the same substance, the “MIC values (>80% reduction) FS3” value with Fusarium solani 3 (FS3) worked out at 2.5 µM. Also, the “MIC values (>80% reduction) FS4” value in the assay with Fusarium solani 4 (FS4) was >40 µM. Further, the “MIC values (>80% reduction) FS2” value against Fusarium solani 2 (FS2) was 10 µM. The “MIC values (>80% reduction) AF” value in assay [2] is >40 µM.

For “RRKRRKRRRRRKRRKRRR (Artificial polypeptide designated MU 16) [MU_16]”, the “antifungal activity (in words)” value in the assay on fungi is listed as “particularly effective antifungal peptides”. In the assay on Fusarium solani 1 (FS1), the “MIC values (>80% reduction) FS1” value is 1.25 µM. In addition, the “MIC values (>80% reduction) CA” value in assay [1] worked out at 10 µM. Also, the “MIC values (>80% reduction) FS3” value against Fusarium solani 3 (FS3) was determined as 1.25 µM. For the same substance, the “MIC values (>80% reduction) FS4” value against Fusarium solani 4 (FS4) is 2.5 µM. In the assay with Fusarium solani 2 (FS2), the “MIC values (>80% reduction) FS2” value came to 1.25 µM. For the same substance, the “MIC values (>80% reduction) AF” value in assay [2] amounted to 40 µM.

Regarding “RRWRKRWRKWRWRKRWRK (Artificial polypeptide designated MU 28) [MU_28, 42]”, in the assay on fungi, the “antifungal activity (in words)” value was “good antifungal activity”. In addition, the “MIC values (>80% reduction) FS1” value in the assay on Fusarium solani 1 (FS1) was found to be 0.6 µM. Besides, the “MIC values (>80% reduction) CA” value in assay [1] was >40 µM. For the same substance, the “MIC values (>80% reduction) FS3” value in the assay with Fusarium solani 3 (FS3) came out at 1.25 µM. In addition, the “MIC values (>80% reduction) FS4” value in the assay with Fusarium solani 4 (FS4) is 2.5 µM. In addition, in the assay with Fusarium solani 2 (FS2), the “MIC values (>80% reduction) FS2” value amounted to 0.6 µM. Also, the “MIC values (>80% reduction) AF” value in assay [2] was 10 µM.

As for “WRKWRKRWW (Artificial polypeptide designated MU 45) [MU_45, 87; monomer on which MU 4 is based]”, the “antifungal activity (in words)” value with fungi is “ineffective”. Moreover, in the assay with Fusarium solani 1 (FS1), the “MIC values (>80% reduction) FS1” value is 40 µM. The “MIC values (>80% reduction) CA” value in assay [1] is >40 µM. In addition, in the assay with Fusarium solani 3 (FS3), the “MIC values (>80% reduction) FS3” value came out at 40 µM. Further, in the assay with Fusarium solani 4 (FS4), the “MIC values (>80% reduction) FS4” value is >40 µM. Besides, the “MIC values (>80% reduction) FS2” value in the assay with Fusarium solani 2 (FS2) amounted to 40 µM. Besides, in assay [2], the “MIC values (>80% reduction) AF” value is >40 µM.

As to “WRWKKKWRKWRWKKKWRK (Artificial polypeptide designated MU 26) [MU_26, 89]”, the “antifungal activity (in words)” value in the assay on fungi is reported as “reduced activity”. Also, in the assay with Fusarium solani 1 (FS1), the “MIC values (>80% reduction) FS1” value is 5 µM. In addition, in assay [1], the “MIC values (>80% reduction) CA” value was >40 µM. In addition, the “MIC values (>80% reduction) FS3” value against Fusarium solani 3 (FS3) came to 5 µM. In addition, the “MIC values (>80% reduction) FS4” value with Fusarium solani 4 (FS4) was determined as 10 µM. Further, the “MIC values (>80% reduction) FS2” value in the assay on Fusarium solani 2 (FS2) is 5 µM. Also, the “MIC values (>80% reduction) AF” value in assay [2] is >40 µM.

With “WRWRKRWRKWRWRKRWRK (Artificial polypeptide designated MU 27) [MU_27]”, the “antifungal activity (in words)” value with fungi was “good antifungal activity”. The “MIC values (>80% reduction) FS1” value in the assay with Fusarium solani 1 (FS1) amounted to 0.6 µM. Besides, the “MIC values (>80% reduction) CA” value in assay [1] was found to be 20 µM. In addition, the “MIC values (>80% reduction) FS3” value against Fusarium solani 3 (FS3) came out at 0.6 µM. The “MIC values (>80% reduction) FS4” value against Fusarium solani 4 (FS4) worked out at 1.25 µM. In the assay on Fusarium solani 2 (FS2), the “MIC values (>80% reduction) FS2” value is 0.6 µM. The “MIC values (>80% reduction) AF” value in assay [2] came out at 5 µM.

On to “WRWRRRWRKWRWRRRWRK (Artificial polypeptide designated MU 25) [MU_25, 88]”, for which the “antifungal activity (in words)” value in the assay with fungi is “reduced activity”. In addition, the “MIC values (>80% reduction) FS1” value in the assay with Fusarium solani 1 (FS1) was determined as 5 µM. For the same substance, the “MIC values (>80% reduction) CA” value in assay [1] is >40 µM. Besides, the “MIC values (>80% reduction) FS3” value against Fusarium solani 3 (FS3) stood at 10 µM. Also, the “MIC values (>80% reduction) FS4” value against Fusarium solani 4 (FS4) came to 20 µM. Also, the “MIC values (>80% reduction) FS2” value against Fusarium solani 2 (FS2) is 5 µM. Also, the “MIC values (>80% reduction) AF” value in assay [2] is 10 µM.

As for “YRKYRKRYYYRKYRKRYY (Artificial polypeptide designated GIN 41 or MU6) [MU_6]”, the “antifungal activity (in words)” value in the assay on fungi is reported as “particularly effective antifungal peptides”. In the assay on Fusarium solani 1 (FS1), the “MIC values (>80% reduction) FS1” value came to 10 µM. In assay [1], the “MIC values (>80% reduction) CA” value was >40 µM. Also, the “MIC values (>80% reduction) FS3” value against Fusarium solani 3 (FS3) came to 5 µM. Besides, the “MIC values (>80% reduction) FS4” value in the assay on Fusarium solani 4 (FS4) stood at 20 µM. In addition, the “MIC values (>80% reduction) FS2” value in the assay with Fusarium solani 2 (FS2) stood at 5 µM. Further, the “MIC values (>80% reduction) AF” value in assay [2] was >40 µM.

“modified apoB3359-3367: SEQ ID No. 7; modified form of the apoB3359-3367 9-mer, sequence shown only in Table 1 drawing (LRTRKRGRK; not fully specified) [reference compound]”: in the assay on fungi, the “antifungal activity (in words)” value was “no detectable antifungal activity”.
